Experimental data from patent EP1316317A1, “Hydrosoluble mixtures of cyproterone and/or an ester of it, processes to obtain them and uses thereof” (University of Liege, priority 2001, dated 2003).
Where “and” joins values, the source holds several entries; their conditions need not be identical. Identical values can stand only once.

Columns and labels:
[1] = Phase-solubility diagram of CPA in aqueous cyclodextrin solutions (excess CPA, HPLC assay of filtrate); format: physicochemical; details: for Concentration en CPA (Solubilité du CPA en présence de HPβCD) / Concentration en CPA (Solubilité du CPA en présence de HPγCD) / Concentration en CPA (Solubilité du CPA en présence de RMβCD) / Concentration en CPA (Solubilité du CPA en présence de SBEβCD) / Concentration en CPA (Solubilité du CPA en présence de βCD) / Concentration en CPA (Solubilité du CPA en présence de γCD): 24 h at 25°C
Procedure: Les diagrammes de solubilité sont effectués en ajoutant un excès de CPA à des solutions de CD de concentration croissante. Après 24 heures d'agitation dans des bains thermostatisés à 25°C, ces solutions sont filtrées et la quantité de CPA solubilisée est dosée par HPLC.
Pesée de minimum 30 mg de CPA et ajout de 2 ml de solution de CD. Pour chaque concentration de CD, les essais sont répétés au moins deux fois. Des essais sont également effectués avec une solution aqueuse sans CD.
Les échantillons sont mis en agitation dans des bains thermostatisés à 25°C pendant 24 heures. Ensuite, ces échantillons sont filtrés sur filtre en polyvinyldifluoridène (PVDF) de 0,45 µm (Millipore, Millex HV 0,45 µm) et la concentration de CPA dans les filtrats est dosée par HPLC.
• Echantillonneur automatique Merck L-7200, Détecteur UV Merck L-7400, Pompe Merck L-7100 et intégrateur Merck D-2500.
• Colonne : Lichrospher RP18 (5 µm) 125 mm • Phase mobile : ACN/H2O 50/50 • Débit : 1,5 ml/min • Température : 25°C • Longueur d'onde : 282 nm • Etalon interne : propylparaben.

[2] = Stability of CPA in aqueous solution, alone or as complex with βCD (HPLC); format: physicochemical
Procedure: Un complexe est formé par ajout de 2 ml de solution aqueuse de βCD 10 mM à 20 mg de CPA. Après agitation pendant 24 heures à 25°C, ces solutions sont filtrées sur filtre en PVDF de 0,45 µm (Millipore, Millex HV 0,45 µm). La formation du complexe est effectuée sur 8 échantillons différents.
Les solutions de référence de CPA sont préparées en ajoutant 2 ml de solution aqueuse à 20 mg de CPA. Après agitation pendant 24 heures à 25°C, ces solutions sont filtrées sur filtre en PVDF de 0,45 µm. 8 échantillons sont préparés.
(§1) Les échantillons sont conservés dans des conditions ambiantes (20°C) pendant 3 mois.
La concentration en CPA contenue dans les solutions de CPA seul ou sous forme de complexe est dosée par HPLC au temps 0, après 1 mois et après 3 mois.
L'appareillage et les conditions chromatographiques sont ceux tels qu'utilisés dans l'Exemple 3.

[3] = Stability of CPA in aqueous solution, alone or as complex with RMβCD (HPLC); format: physicochemical
Procedure: Les complexes sont formés par ajout de 2 ml de solution aqueuse de RMβCD à 30 mg de CPA. Des solutions de RMβCD à différentes concentrations ont été utilisées: 12,5; 25; 50; 100 et 200 mM. Après agitation pendant 24 heures à 25°C, ces solutions sont filtrées sur filtre en PVDF de 0,45 µm (Millipore, Millex HV 0,45 µm).
Les solutions de référence de CPA sont préparées en ajoutant 2 ml de solution aqueuse à 30 mg de CPA. Après agitation pendant 24 heures à 25°C, ces solutions sont filtrées sur filtre en PVDF de 0,45 µm (Millipore, Millex HV 0,45 µm).
as §1
La concentration en CPA contenu dans les solutions de CPA seul ou sous forme de complexe est dosée par HPLC au temps 0, après 1 mois et après 3 mois.
(§2) Les conditions chromatographiques sont telles qu'utilisées précédemment.

[4] = Stability of CPA in alkaline medium (stress conditions), alone or complexed with CDs (HPLC); format: physicochemical; details: CD 100 mM
Procedure: Les complexes sont préparés en ajoutant 2 ml de solution aqueuse de CD à 20 mg de CPA. Les solutions de CD utilisées pour préparer ces complexes sont des solutions de HPβCD, de HPγCD ou de RMβCD à une concentration de 100 mM. Après agitation pendant 24 heures à 25°C, ces solutions sont filtrées sur filtre en PVDF de 0,45 µm (Millipore, Millex HV 0,45 µm).
Les solutions de référence de CPA sont préparées en ajoutant 2 ml de solution aqueuse à 20 mg de CPA. Après agitation pendant 24 heures à 25°C, ces solutions sont filtrées sur filtre en PVDF de 0,45 µm (Millipore, Millex HV 0,45 µm).
Chaque essai est répété à 3 reprises et les échantillons sont conservés dans des étuves à température contrôlée à 25°C pendant 1 mois.
La concentration en CPA contenu dans les solutions de CPA seul ou sous forme de complexe est dosée par HPLC au temps 0 et après 1 mois et le pH des solutions est mesuré après 1 mois.
as §2
Après 1 mois, la libération de substances alcalines provenant des flacons a communiqué un pH alcalin aux solutions. Ce pH a été mesuré et varie entre 8 et 9 dans les différentes solutions. Ce pH alcalin a provoqué la dégradation de l'acétate de cyprotérone, par hydrolyse de la fonction ester.

[5] = Adsorption of CPA on cellulose and PVDF filters (recovery after filtration); format: physicochemical; details: CPA 2 µg/ml (100 µg/ml diluted 50-fold), CD 10 mM
Procedure: Les complexes ont été préparés en diluant 50 fois une solution mère de CPA à 100 µg/ml dans un mélange eau/acétonitrile (ACN) 50/50, avec une solution aqueuse de cyclodextrine à 10 mM. Les différentes cyclodextrines utilisées sont la β-CD, la γCD, l'HPβCD, l'HPγCD et la RMβCD. Ces échantillons sont agités au vortex pendant au moins 1 minute. Etant donné la faible proportion de CPA par rapport à la concentration en cyclodextrine et le CPA étant déjà solubilisé dans le milieu, il n'est pas nécessaire d'agiter 24 heures à 25°C pour obtenir le complexe, ce dernier étant formé très rapidement.
Une solution de référence contenant seulement du CPA est préparée en diluant 50 fois la solution mère de CPA à 100 µg/ml dans un mélange eau/acétonitrile 50/50, avec de l'eau purifiée.
Chaque essai est répété à trois reprises. Ces échantillons sont ensuite filtrés en partie sur filtre en ester de cellulose et en partie sur filtre en PVDF. Les échantillons sont dosés avant et après filtration de façon à pouvoir calculer le pourcentage de récupération après filtration.

[6] = water; background statement, no method given; cited from earlier work
[7] = CPA concentration at time 0, 1440 min

## acétate de cyprotérone [CPA]
[1]; HPβCD 25 mM
  Concentration en CPA (Solubilité du CPA en présence de HPβCD): 308,0 µg/ml
[1]; HPβCD 50 mM
  Concentration en CPA (Solubilité du CPA en présence de HPβCD): 629,9 µg/ml
[1]; HPβCD 100 mM
  Concentration en CPA (Solubilité du CPA en présence de HPβCD): 1188,6 µg/ml
[1]; HPβCD 200 mM
  Concentration en CPA (Solubilité du CPA en présence de HPβCD): 2648,2 µg/ml
[1]; HPβCD 12,5 mM
  Concentration en CPA (Solubilité du CPA en présence de HPβCD): 147,1 µg/ml
[1]; HPγCD 25 mM
  Concentration en CPA (Solubilité du CPA en présence de HPγCD): 282,5 µg/ml
[1]; HPγCD 50 mM
  Concentration en CPA (Solubilité du CPA en présence de HPγCD): 578,9 µg/ml
[1]; HPγCD 100 mM
  Concentration en CPA (Solubilité du CPA en présence de HPγCD): 1512,0 µg/ml
[1]; HPγCD 200 mM
  Concentration en CPA (Solubilité du CPA en présence de HPγCD): 4291,1 µg/ml
[1]; HPγCD 12,5 mM
  Concentration en CPA (Solubilité du CPA en présence de HPγCD): 118,7 µg/ml
[1]; RMβCD 25 mM
  Concentration en CPA (Solubilité du CPA en présence de RMβCD): 430,9 µg/ml
[1]; RMβCD 50 mM
  Concentration en CPA (Solubilité du CPA en présence de RMβCD): 1169,9 µg/ml
[1]; RMβCD 100 mM
  Concentration en CPA (Solubilité du CPA en présence de RMβCD): 3222,1 µg/ml
[1]; RMβCD 200 mM
  Concentration en CPA (Solubilité du CPA en présence de RMβCD): 9598,7 µg/ml
[1]; RMβCD 12,5 mM
  Concentration en CPA (Solubilité du CPA en présence de RMβCD): 176,9 µg/ml
[1]; SBEβCD 25 mM
  Concentration en CPA (Solubilité du CPA en présence de SBEβCD): 461,8 µg/ml
[1]; SBEβCD 50 mM
  Concentration en CPA (Solubilité du CPA en présence de SBEβCD): 860,9 µg/ml
[1]; SBEβCD 100 mM
  Concentration en CPA (Solubilité du CPA en présence de SBEβCD): 1475,2 µg/ml
[1]; SBEβCD 200 mM
  Concentration en CPA (Solubilité du CPA en présence de SBEβCD): 2034,1 µg/ml
[1]; SBEβCD 12,5 mM
  Concentration en CPA (Solubilité du CPA en présence de SBEβCD): 243,9 µg/ml
[1]; water without cyclodextrin, 24 h agitation at 25°C, 1440 min
  solubilité du CPA sans cyclodextrine: < 3 µg/ml and 2,6 µg/ml
[1]; βCD 5 mM
  Concentration en CPA (Solubilité du CPA en présence de βCD): 28,8 µg/ml
[1]; βCD 10 mM
  Concentration en CPA (Solubilité du CPA en présence de βCD): 56,7 µg/ml
[1]; βCD 15 mM
  Concentration en CPA (Solubilité du CPA en présence de βCD): 86,5 µg/ml
[1]; γCD 25 mM
  Concentration en CPA (Solubilité du CPA en présence de γCD): 436,6 µg/ml
[1]; γCD 50 mM
  Concentration en CPA (Solubilité du CPA en présence de γCD): 1041,0 µg/ml
[1]; γCD 100 mM
  Concentration en CPA (Solubilité du CPA en présence de γCD): 2368,9 µg/ml
[1]; γCD 200 mM (so in the source)
  Concentration en CPA (Solubilité du CPA en présence de γCD): 2266,8 µg/ml
[1]; γCD 12,5 mM
  Concentration en CPA (Solubilité du CPA en présence de γCD): 195,2 µg/ml
[2]; after 1 month at ambient conditions (20°C)
  CPA retrouvé après 1 mois, Conc.: 2,2 µg/ml
[2]; after 1 month at ambient conditions (20°C), relative to time 0, 43800 min
  CPA retrouvé après 1 mois, Pourcentage moyen CPA: 84,6%
[2]; after 3 months at ambient conditions (20°C)
  CPA retrouvé après 3 mois, Conc.: 2,1 µg/ml
[2]; after 3 months at ambient conditions (20°C), relative to time 0, 131400 min
  CPA retrouvé après 3 mois, Pourcentage moyen CPA: 79,3%
[2]; time 0, βCD 10 mM for the complex, n=8, 1440 min
  CPA au temps 0, Conc.: 2,6 µg/ml
[3]; CPA concentration after 1 month at ambient conditions (20°C)
  Conc. t1: 2,2 µg/ml
[3]; [7]
  Conc. t0: 2,7 µg/ml
[3]; CPA remaining after 1 month at 20°C, 43800 min
  Pourcentage t1 mois: 83,7%
[3]; CPA remaining after 3 months at 20°C, 131400 min
  Pourcentage t3 mois: 77,1%
[4]; CPA concentration after 1 month at 25°C, alkaline pH 8 to 9
  Conc. t1 mois: 0,4 µg/ml
[4]; [7]
  Conc. t0: 2,3 µg/ml
[4]; after 1 month at 25°C, alkaline pH 8 to 9, 43800 min
  Pourcentage CPA après 1 mois: 17,6%
[5]; PVDF filter
  Pourcentage de CPA récupéré après filtration sur PVDF, Moyenne: 88,7%
[5]; cellulose filter
  Pourcentage de CPA récupéré après filtration sur acétate de cellulose, Moyenne: 2,9%
[6]
  solubilité de l'acétate de cyprotérone dans l'eau: ~2 µg/mL
